Data set [1] concerns subarachnoid hemorrhage in rats. The experiment in a line: Rat subarachnoid hemorrhage (SAH) model by intravascular puncture, Sugawara bleeding score. The class given is in vivo. Also noted: dose or concentration left out as unconfirmed. The conditions noted are these: tail vein injection, 2 administrations 4 h apart, scored 24 h after first administration (Sugawara).
Data set [2] relates to endothelial nitric oxide synthase (eNOS). The experiment in a line: Endothelial nitric oxide synthase (eNOS) in EA.Hy926 endothelial cells, detection kit. The class given is cell-based. The conditions noted are these: EA.Hy926 cell supernatant, 24 h. As for the experimental part: (§1) Commercially available cytokine kits were used to detect the effects of the compounds of the present application on vascular endothelium-derived contracting factor endothelin, vascular endothelium-derived relaxing factor endothelial nitric oxide synthase, nitric oxide, and prostacyclin factor. The detection was performed according to the kit instructions. When testing the effect of the compound of the present application on cytokines, a normal control group, a fasudil hydrochloride group, and high-, medium- and low-dose groups of the compounds of the present application were set up for testing. The fasudil hydrochloride used in this test example was purchased from Beijing Sihuan Pharmaceutical Co., Ltd., with the SFDA approval number of H20173349. The EA.Hy926 cells used in this test example were purchased from Suzhou Beina Chuanglian Biotechnology Co., Ltd.
Detection conditions: EA.Hy926 cells were inoculated at 1×10^5 […] in a 96-well plate, 100 μL per well, and cultured adherently for 24 hours, then the test compound prepared with DMEM medium was added, the normal control group was added with an equal volume of DMEM medium, then the cells were cultured for 24 hours at 37° C., and then the cell supernatant was taken and placed in an EP tube, and centrifuged at 3000 r/min and 4° C. for 15 minutes, the resulting supernatant was transferred to a new EP tube, diluted 3 times, and detected according to the instruction of eNOs detection kit (purchased from Wuhan Elabscience Biotechnology Co., Ltd., Cat. No. AK0017OCT12013), and the detection results were shown in Table 4.

Another data set relates to nitric oxide (NO). The experiment in a line: Synthesis and secretion of nitric oxide (NO) in EA.Hy926 endothelial cells, NO detection kit. The class given is cell-based. The settings on record: EA.Hy926 cell supernatant, 24 h. As for the experimental part: as §1
EA.Hy926 cells were inoculated in a 24-well plate at 5×10^5 cells/mL, 400 μL per well, and cultured adherently for 18 hours, then the supernatant was discarded, the test compound prepared in DMEM medium was added, and an equal volume of DMEM medium was added in the normal control group, then the cells was cultured for 24 h in incubator, and then the cell supernatant was collected and detected according to the instructions of NO detection kit (purchased from Beyotime Institute of Biotechnology, Cat. No. 062617171017), and the detection results were shown in Table 5.

A short description of data set [3]: Toxicity test on endothelial cells EA.hy926, CCK-8 cell viability. The class given is cell-based. The settings on record: human, 1000~0.32 μmol/L, 5-fold dilution, read-out: IC50 of Test compound (cytotoxicity on EA.hy926 cells). An outline of the steps:
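EA.hy926 cells (density 5×10^4) were precultured 24 h at 37 °C, 5% CO2, then exposed to compound in DMEM/10% FBS for 24 h, duplicates per concentration. CCK-8 was added for 2.5 h at 37 °C and A450 read. Viability was normalized to PBS normal control minus medium blank, and IC50 was taken from concentration–viability curves.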

The structures appear in SMILES notation. Counter-ions that a name gives are not always drawn.

By IC50 is commonly meant the midpoint of a concentration-inhibition curve.

With `CC[C@@H]1CNCCCN1S(=O)(=O)c1cccc2c(OC)nccc12` [Compound R-YK1610, (R)-5-((2-ethyl-1,4-diazacycloheptan-1-yl)sulfonyl)-1-methoxyisoquinoline], the “Cerebral hemorrhage volume score (x ± s)” value in data set [1] was 12.83 ± 2.05. Also, in data set [2], the “expression of endothelial nitric oxide synthase in endothelial cells: Detection result of test compound at low dose (0.4 μM)” value (from here on “expression … (0.4 μM)”) is 2632.05 ± 235.87 pg/mL, the “expression of endothelial nitric oxide synthase in endothelial cells: Detection result of test compound at medium dose (2 μM)” value (“expression … (2 μM)” below) worked out at 2397.93 ± 280.08 pg/mL and the “expression of endothelial nitric oxide synthase in endothelial cells: Detection result of test compound at high dose (10 μM)” value (“expression … (10 μM)” below) came out at 2329.68 ± 263.98 pg/mL. In the data set on nitric oxide (NO), the “nitric oxide secretion in endothelial cells: Detection result of test compound at low dose (0.4 μM)” value (shortened to “nitric oxide secretion … (0.4 μM)”) came to 0.997 ± 0.057 μm, the “nitric oxide secretion in endothelial cells: Detection result of test compound at medium dose (2 μM)” value (“nitric oxide secretion … (2 μM)” below) was 1.068 ± 0.032 μm and the “nitric oxide secretion in endothelial cells: Detection result of test compound at high dose (10 μM)” value (shortened to “nitric oxide secretion … (10 μM)”) turned out to be 1.121 ± 0.006 μm. In data set [3], the IC50 at 24 h is 169 µM.
`CCCC[C@@H]1CNCCCN1S(=O)(=O)c1cccc2c(O)nccc12` [Compound R-YK1611, (R)-5-((2-butyl-1,4-diazacycloheptan-1-yl)sulfonyl)isoquinolin-1-ol]: in data set [1], the “Cerebral hemorrhage volume score (x ± s)” value was 12.41 ± 2.03. Further, in data set [2], the “expression … (0.4 μM)” value came to 2652.53 ± 279.27 pg/mL, the “expression … (2 μM)” value came out at 2291.59 ± 253.56 pg/mL and the “expression … (10 μM)” value amounted to 2195.70 ± 187.16 pg/mL. For the same molecule, in the data set with nitric oxide (NO), the “nitric oxide secretion … (0.4 μM)” value worked out at 1.095 ± 0.095 μm, the “nitric oxide secretion … (2 μM)” value was 1.109 ± 0.087 μm and the “nitric oxide secretion … (10 μM)” value stood at 1.125 ± 0.016 μm. In data set [3], the IC50 at 24 h was determined as 284 µM.
Take `COc1nccc2c(S(=O)(=O)N3CCCNC[C@H]3CCC(C)C)cccc12` [Compound R-YK1612, (R)-5-((2-isopentyl-1,4-diazacycloheptan-1-yl)sulfonyl)-1-methoxyisoquinoline]: in data set [1], the “Cerebral hemorrhage volume score (x ± s)” value is recorded as 13.05 ± 1.96. Moreover, in data set [2], the “expression … (0.4 μM)” value came out at 2776.58 ± 261.27 pg/mL, the “expression … (2 μM)” value was determined as 2456.67 ± 226.85 pg/mL and the “expression … (10 μM)” value came out at 2286.671 ± 195.06 pg/mL. In the data set with nitric oxide (NO), the “nitric oxide secretion … (0.4 μM)” value is given as 0.960 ± 0.134 μm, the “nitric oxide secretion … (2 μM)” value is reported as 1.021 ± 0.006 μm and the “nitric oxide secretion … (10 μM)” value is recorded as 1.114 ± 0.006 μm. For the same molecule, the IC50 at 24 h in data set [3] came out at 176 µM.
`O=S(=O)(c1cccc2cnccc12)N1CCCNCC1` [Fasudil hydrochloride, reference compound]: the “Cerebral hemorrhage volume score (x ± s)” value in data set [1] is given as 10.25 ± 3.24. In addition, in data set [2], the “expression … (0.4 μM)” value worked out at 2810.61 ± 13.02 pg/mL, the “expression … (2 μM)” value was 2648.66 ± 9.59 pg/mL and the “expression … (10 μM)” value came to 2636.14 ± 188.26 pg/mL. In the data set with nitric oxide (NO), the “nitric oxide secretion … (0.4 μM)” value is 1.131 ± 0.045 μm, the “nitric oxide secretion … (2 μM)” value is 1.356 ± 0.045 μm and the “nitric oxide secretion … (10 μM)” value is 1.450 ± 0.000 μm. Besides, the IC50 at 24 h in data set [3] is 75.7 µM.

Values taken from patent publication US12264146B2, “Rho kinase inhibitor, method for preparing same and uses thereof” (BEIJING INCREASE INNOVATIVE DRUG CO., LTD., priority 2018, dated 2025).
